Assay [1] has as its system Anaerococcus hydrogenalis DSM 7454. Kind of assay: TMA inhibition in bacterial whole cells (LC–MS/MS of d9-TMA from d9-choline). The assay is classed as cell-based. To be noted: 1 mM d9-choline in PBS, 75 min, 37°C, anaerobic; for pEC50: Anaerococcus hydrogenalis, DSM7454, 1.25 h.
The test system of assay [2] is Clostridium sporogenes ATCC 15579. Described as above. The assay is classed as cell-based. To be noted: Clostridium sporogenes, ATCC15579, 1.25 h; 1 mM d9-choline in PBS, 75 min, 37°C, anaerobic.
The test system of assay [3] is Proteus mirabilis ATCC 29906. Described as above. The conditions noted are these: Proteus mirabilis, ATCC29906, 1.5 h; 1 mM d9-choline in PBS, 90 min, 37°C, anaerobic; read-out: EC50 in whole cells, P. mirabilis (TMA inhibition). It counts as cell-based.
In assay [4] the target is T1, purified CutC (choline trimethylamine-lyase) (Oleidesulfovibrio alaskensis, UniProt Q30W70).
T1 construct: made in house
Kind of assay: In vitro CutC activity assay coupled to YADH/NADH (absorbance 340 nm). It counts as biochemical, Desulfovibrio desulfuricans G20. The conditions noted are these: 5 nM CutC, 200 µM choline, 20°C, anaerobic. As to the method: To investigate if our compounds were inhibiting CutC directly, we tested their activity toward the purified enzyme. The activity of CutC was determined using a coupled enzyme assay, where the acetaldehyde product from the cleavage of choline to TMA is reduced to ethanol by yeast alcohol dehydrogenase (YADH) using nicotinamide adenine dinucleotide (NADH) as a cofactor. The consumption of NADH results in a change in absorption at 340 nm, and this rate of change of absorption was used to calculate the initial rates of reaction of CutC in the presence of varying concentrations of inhibitors ([14], [65]).
CutC and CutD enzymes from Desulfovibrio desulfuricans G20 were purified, CutC was activated by incubation with CutD, and the amount of glycyl radical installation was quantified as previously described ([15]). The IC50 of compounds was determined in an in vitro CutC activity assay, where CutC activity is coupled to the NADH-dependent enzymatic reduction of acetaldehyde by YADH ([15]). Briefly, assays were conducted in an anaerobic chamber (MBraun) under N2 atmosphere at 20°C. In 50 mM potassium phosphate buffer (pH 8.0, 50 mM KCl), 40 µM of CutD and 150 µM of sodium dithionite were incubated for 20 min before the addition of 200 µM of SAM and 20 µM of CutC monomer. The mixture was incubated for 1 h to activate the glycyl radical enzyme, after which the activated CutC mixture was diluted […] in 50 mM potassium phosphate buffer (pH 8.0, 50 mM KCl). A master mix containing 200 µM NADH, 0.4 µM YADH (Sigma), and the diluted CutC mixture (5 nM final concentration in assay) was prepared and aliquoted into 96-well plates (180 µL per well). Ten microliters of inhibitor or DMSO vehicle was added, followed by 10 µL of aqueous choline chloride solution (final concentration 200 µM). Absorbance was measured at 340 nm immediately after addition of all assay components, with measurements taken every 20 s for 10 min. Initial rates were calculated from absorbance measurements and fitted to Michaelis–Menten equation using nonlinear regression in GraphPad Prism 10 (v. 10.4.0). Background activity was subtracted using no substrate controls, and initial rates for each inhibitor concentration were normalized to no inhibitor controls. IC50 values were obtained by plotting normalized activity values against the logarithm of inhibitor concentration and fitting to a nonlinear regression model in GraphPad Prism 10 (v. 10.4.0).

For assay [5], the system named is E. coli MS 200-1. The assay can be described thus: MIC in MEGA medium. The assay is classed as cell-based, Escherichia coli MS 200-1. The conditions noted are these: Escherichia coli, MS2001; anaerobic, 37°C, 24 h, up to 200 µM. As to the method: For TMA inhibition assays, E. coli and P. mirabilis were grown in NCE medium supplemented with 20 mM choline chloride, A. hydrogenalis was grown in MEGA medium supplemented with 3 mM choline chloride, and C. sporogenes was grown in BHI medium supplemented with 20 mM of choline chloride to induce expression of the cut gene cluster. For MIC assays, all bacteria strains were grown in MEGA medium.

pEC50, pIC50: −log10 of the molar value.

Data on three compounds can be found in PMC12977544, “Phenotypic high-throughput screening identifies modulators of gut microbial choline metabolism” (mBio, 2026).

T1 sequence (Q30W70 53-846): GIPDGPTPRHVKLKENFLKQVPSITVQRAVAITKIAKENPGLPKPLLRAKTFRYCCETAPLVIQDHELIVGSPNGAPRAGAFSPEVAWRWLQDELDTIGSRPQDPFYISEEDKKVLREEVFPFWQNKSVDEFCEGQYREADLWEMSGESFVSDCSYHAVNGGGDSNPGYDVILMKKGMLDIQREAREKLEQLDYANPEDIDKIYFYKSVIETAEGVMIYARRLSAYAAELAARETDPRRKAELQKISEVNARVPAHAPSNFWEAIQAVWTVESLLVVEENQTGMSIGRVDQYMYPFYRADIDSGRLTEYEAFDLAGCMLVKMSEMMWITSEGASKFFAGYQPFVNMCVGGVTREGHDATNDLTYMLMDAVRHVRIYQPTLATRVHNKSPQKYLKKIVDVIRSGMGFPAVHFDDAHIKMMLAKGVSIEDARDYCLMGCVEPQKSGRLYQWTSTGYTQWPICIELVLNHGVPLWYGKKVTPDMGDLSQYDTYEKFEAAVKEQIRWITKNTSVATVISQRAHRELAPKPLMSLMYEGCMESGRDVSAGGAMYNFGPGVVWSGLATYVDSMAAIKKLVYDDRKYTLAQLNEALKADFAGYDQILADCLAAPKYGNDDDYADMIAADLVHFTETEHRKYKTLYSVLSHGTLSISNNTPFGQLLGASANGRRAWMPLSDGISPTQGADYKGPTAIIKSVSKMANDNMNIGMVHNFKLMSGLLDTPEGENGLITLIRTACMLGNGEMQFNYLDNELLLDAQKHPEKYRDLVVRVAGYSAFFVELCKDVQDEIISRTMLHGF

`Cc1ccc(-c2cc(C(=O)NCCCN3CCc4ccccc4C3)c(C)[nH]2)cc1C` [Compound 5]: in assay [1], the “EC50 in whole cells, A. hydrogenalis (TMA inhibition)” value is reported as “No inhibition”. For the same compound, the pEC50 (usually −log10 of the EC50, conventionally taken in molar units) in assay [2] is 4.55; in assay [3] it was 4.48.

In the case of `Cc1ccc(-c2cc(C(=O)NCCCCCN3CCCCCC3)c(C)[nH]2)cc1C` [Compound 45], the pEC50 in assay [1] is 4.74; in assay [2] it was 4.85; in assay [3] it was 5.15. Besides, in assay [4], the pIC50 (in general, the negative decadic logarithm of the IC50, by convention in mol/L) was 4.77. In assay [5], the MIC (usually the lowest concentration that inhibits growth of the organism) is above 200 µM.

Turning to `Cc1ccc(-c2cc(C(=O)NCCCN3CCC(C)CC3)c(C)[nH]2)cc1C` [Compound 6], the values for the pEC50 in assay [1], in assay [2] and in assay [3] were 4.51, 3.88 and 4.32, respectively. The compound further had a pIC50 in assay [4] of 4.32. The compound also yielded a minimal inhibitory concentration (MIC) in assay [5] above 200 µM.
